Test results: US12234230B2, “Substituted benzyl-triazole compounds for Cbl-b inhibition, and further uses thereof” (Nurix Therapeutics, Inc., priority 2019, dated 2025)
pIC50: −log10 of the molar value.

Legend:
[1] = system: primary human total T-cells; experiment: Primary human total T-cell activation (IL-2 secretion, CD25 surface staining), Biological Example 2; conditions: fold change over baseline; for CD25 staining CD3/CD28 0.3 μM / IL-2 secretion CD3/CD28 0.3 μM: 0.3 μM inhibitor; for CD25 staining CD3/CD28 0.3 μM / IL-2 secretion CD3/CD28 0.3 μM / IL-2 secretion CD3/CD28 1 μM / CD25 staining CD3/CD28 1 μM: anti-CD3 and anti-CD28 co-stimulation; for IL-2 secretion CD3/CD28 1 μM / CD25 staining CD3 1 μM / IL-2 secretion CD3 1 μM / CD25 staining CD3/CD28 1 μM: 1 μM inhibitor; for CD25 staining CD3 1 μM / IL-2 secretion CD3 1 μM / CD25 staining CD3 3 μM / IL-2 secretion CD3 3 μM: anti-CD3 stimulation alone; for CD25 staining CD3 3 μM / IL-2 secretion CD3 3 μM: 3 μM inhibitor
Experimental: Peripheral blood mononuclear cells (PBMC) were obtained either: 1) by using Ficoll-Paque™ (GE Healthcare) for separation of peripheral blood hematopoietic cells from buffy coats of healthy human donors; or 2) directly from LeukoPak donations. […] The cells were rested overnight at 37° C. 5% CO2. The Cbl-inhibitor was added to 1×10^5 cells per well and the plate was incubated for one hour at 37° C. in 5% CO2 at the concentrations indicated (Table 3) with a final DMSO concentration of <0.1%. For samples stimulated with anti-CD3 antibody and anti-CD28 antibody (anti-CD3/anti-CD28), the Cbl-b inhibitor concentrations tested were 1 μM, and 0.3 μM. For samples stimulated with anti-CD3 antibody alone (anti-CD3), the Cbl-b inhibitor concentrations tested were 3 μM, and 1 μM. […] To prepare plates with plate bound anti-CD3 antibody (OKT3), 96-well round bottom tissue culture plates were coated with 100 μL of anti-CD3 antibody (OKT3) at 10 μg/mL for 4 hours at 37° C. 5% CO2 in phosphate buffered saline (PBS). […] Cells were stimulated for 48 hours prior to harvesting the cell free supernatant and staining the cell population for surface marker assessment by flow cytometry. Supernatants were analyzed for cytokine secretion, including IL-2 by ELISA (R&D Systems, Peprotech or Life Technologies) or Luminex multiplex kits (Procarta Life Technologies) following the manufacturer's protocol. Cells were stained with anti-CD25 antibody (BD Biosciences) to assess levels of surface marker of activation.
Readouts were reported as fold change over baseline. Baseline for this study was the measurement obtained from total human T-cells stimulated with anti-CD3 antibody and with soluble anti-CD28 antibody, wherein the cells were not incubated with a Cbl-b inhibitor (Table 3).

Cbl-b = Cbl-b (Homo sapiens (Human), UniProt Q13191); experiment: Cbl-b displacement assay (Cbl-b inhibition assay), Biological Example 1; type: binding; conditions: 0.125 nM Cbl-b final concentration (Low); read-out: Cbl-b activity IC50 (Low)
Experimental: The ability of candidate compounds to displace a known inhibitor and thereby inhibit Cbl-b activity was measured by monitoring the interaction of Cbl-b with a fluorophore-labeled probe in the presence of the candidate compound.
Following the one hour incubation, the plates were read for TR-FRET signal at 520/620 nm using an Envision plate reader (Perkin Elmer).

Sequence of Cbl-b (Q13191 36-427): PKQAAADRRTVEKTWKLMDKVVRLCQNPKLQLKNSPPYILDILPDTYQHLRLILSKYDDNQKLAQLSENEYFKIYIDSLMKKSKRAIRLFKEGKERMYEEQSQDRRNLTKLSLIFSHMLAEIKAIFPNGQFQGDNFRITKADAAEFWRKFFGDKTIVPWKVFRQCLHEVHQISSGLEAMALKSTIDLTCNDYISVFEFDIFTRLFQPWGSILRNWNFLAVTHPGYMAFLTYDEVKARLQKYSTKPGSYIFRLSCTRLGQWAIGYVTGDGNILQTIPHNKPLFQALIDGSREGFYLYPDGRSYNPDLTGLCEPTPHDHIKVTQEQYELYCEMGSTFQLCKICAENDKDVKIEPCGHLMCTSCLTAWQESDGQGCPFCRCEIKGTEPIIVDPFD

| Compound | CD25 staining CD3/CD28 0.3 μM [1] | IL-2 secretion CD3/CD28 0.3 μM [1] | IL-2 secretion CD3/CD28 1 μM [1] | CD25 staining CD3 1 μM [1] | IL-2 secretion CD3 1 μM [1] | CD25 staining CD3 3 μM [1] | IL-2 secretion CD3 3 μM [1] | pIC50 (Cbl-b) | CD25 staining CD3/CD28 1 μM [1] |
| --- | --- | --- | --- | --- | --- | --- | --- | --- | --- |
| C[C@@H]1CN(Cc2cc3c(c(C4CC4)n2)CN(c2cccc([C@]4(c5nncn5C)C[C@@H](C)C4)c2)C3=O)CCC1(F)F [Compound 26, 4-cyclopropyl-6-(((R)-4,4-difluoro-3-methylpiperidin-1-yl)methyl)-2-(3-((1s,3S)-3-methyl-1-(4-methyl-4H-1,2,4-triazol-3-yl)cyclobutyl)phenyl)-2,3-dihydro-1H-pyrrolo[3,4-c]pyridin-1-one] | B (B indicates 1.24-1.39 fold) | C (C indicates <20 fold) | B (B indicates 20-35 fold) | A (A indicates >2.5 fold) | A (A indicates >1.1 fold) | A (A indicates >2.5 fold) | A (A indicates >1.1 fold) | 7.70 to 8.30 | – |
| CC[C@H]1CN(Cc2cc3c(c(C(F)(F)F)c2)CN(c2cccc([C@]4(c5nncn5C)C[C@@H](C)C4)c2)C3=O)CCO1 [Compound 27, 6-(((S)-2-ethylmorpholino)methyl)-2-(3-((1s,3R)-3-methyl-1-(4-methyl-4H-1,2,4-triazol-3-yl)cyclobutyl)phenyl)-4-(trifluoromethyl)isoindolin-1-one] | B (B indicates 1.24-1.39 fold) | C (C indicates <20 fold) | B (B indicates 20-35 fold) | C (C indicates <1.5 fold) | C (C indicates <0.70 fold) | C (C indicates <1.5 fold) | C (C indicates <0.70 fold) | 7.70 to 8.30 | – |
| C[C@@H]1CN(Cc2cc3c(c(C(F)(F)F)c2)CN(c2cccc([C@]4(c5nncn5C)C[C@@H](CC#N)C4)c2)C3=O)CCC1(F)F [Compound 49, 2-((1S,3s)-3-(3-(6-(((R)-4,4-difluoro-3-methylpiperidin-1-yl)methyl)-1-oxo-4-(trifluoromethyl)isoindolin-2-yl)phenyl)-3-(4-methyl-4H-1,2,4-triazol-3-yl)cyclobutyl)acetonitrile] | B (B indicates 1.24-1.39 fold) | A (A indicates >35 fold) | A (A indicates >35 fold) | A (A indicates >2.5 fold) | A (A indicates >1.1 fold) | A (A indicates >2.5 fold) | A (A indicates >1.1 fold) | > 8.30 | B (B indicates 1.24-1.39 fold) |
| C[C@@H]1CN(Cc2cc3c(c(C(F)(F)F)c2)CN(c2cccc([C@]4(c5nncn5C)C[C@H](O)C4)c2)C3=O)CCC1(F)F [Compound 34, 6-(((R)-4,4-difluoro-3-methylpiperidin-1-yl)methyl)-2-(3-(trans-3-hydroxy-1-(4-methyl-4H-1,2,4-triazol-3-yl)cyclobutyl)phenyl)-4-(trifluoromethyl)isoindolin-1-one] | B (B indicates 1.24-1.39 fold) | C (C indicates <20 fold) | A (A indicates >35 fold) | B (B indicates 1.5-2.5 fold) | A (A indicates >1.1 fold) | B (B indicates 1.5-2.5 fold) | A (A indicates >1.1 fold) | 7.70 to 8.30 | B (B indicates 1.24-1.39 fold) |
